Data: patent US20220168384A1, “Anti-Bacterial Combination Therapy” (McMaster University, priority 2019, published 2022)

What was measured:
E. coli BW25113 = assay: Thiostrepton susceptibility of E. coli in MHB versus 10:90; format: cell-based, Escherichia coli; conditions: 10:90 medium; up to 10 μM (17 μg/ml) TS
Description: (§1) The susceptibility of P. aeruginosa PA14, E. coli BW25113, A. baumannii C0286, and S. aureus USA300 was compared in MHB versus 10:90 medium. E. coli lacks FpvAB and is resistant to TS in both media.

P. aeruginosa PAO1 = assay: Checkerboard assays of TS with DFP, DSX or 10% serum; format: cell-based, Pseudomonas aeruginosa; conditions: 10:90 + 10% heat-inactivated mouse or human serum, regardless of DSX
Description: Human serum (Corning) and mouse serum (Equitech-Bio) were stored at −20° C. Sera were aliquoted into 5-ml culture tubes by thawing once at 37° C. for 30 min with occasional gentle mixing. Culture tubes were frozen at −20° C. until use. To make 10% serum solutions, serum was thawed for 10 min at 37° C. and then heat inactivated at 57° C. for 30 min. Two milliliters of heat-inactivated serum were added to 18 ml of 10:90 medium and gently mixed. This 10% serum solution was used for checkerboard assays.
Checkerboard assays were set-up using Nunc 96-well plates in an 8-well by 8-well format. Two columns were allocated for vehicle controls and two columns for sterility controls. Vehicle controls contained 2 μL DMSO plus 2 μL DFP solvent for checkerboards with TS and DFP or 4 μL DMSO for TS and DSX, in 146 μL of 10:90 medium or 10% serum inoculated with PA14 or PAO1-KP as described in Growth Curves. Sterile controls contained the same components in 10:90 medium or 10% serum, without cells. Serial dilutions of TS—with 17 μg/mL being the highest final concentration—were added along the y axis of the checkerboard (increasing concentration from bottom to top) whereas serial dilutions of DFP or DSX—with 512 μg/mL being the highest final concentration—were added along the x axis (increasing concentration from left to right). The final volume of each well was 150 μL and each checkerboard was repeated at least three times. Plates were incubated and the final OD600 determined as detailed above.

[1] = system: methicillin-resistant Staphylococcus aureus USA300; assay: Thiostrepton susceptibility of S. aureus in MHB versus 10:90; format: cell-based; conditions: both 10:90 medium and MHB
Description: as §1

[2] = system: P. aeruginosa PAO1 and PA14 expressing Tsr; assay: TS susceptibility of P. aeruginosa expressing tsr in trans from pUCP20; format: cell-based, Pseudomonas aeruginosa; conditions: VBMM
Description: A) Growth of PAO1; B) Growth of PA14. Each assay was performed at least 3 times in triplicate; **** p<0.0001.
The tsr gene from pIJ6902 was PCR-amplified using primers 5′[…]-3′ and 5′[…]-3′. Both the PCR product and pUCP20 vector were digested with SmaI and HindIII, gel-purified, and ligated at a 1:3 molar ratio using T4 DNA ligase. The ligated DNA was transformed into E. coli DH5a and transformants selected on LB agar containing 100 μg/mL ampicillin and 5-bromo-4-chloro-3-indolyl-β-D-galactopyranoside for blue-white selection. Plasmids from white colonies were purified using a GeneJet Plasmid Miniprep kit (Thermo Scientific) following the manufacturer's protocols. After verification by restriction digest and DNA sequencing, pUCP20 and pUCP20-tsr were each introduced into P. aeruginosa PAO1 and PA14 by electroporation. Transformants were selected on LB agar containing 200 μg/mL carbenicillin.

With `C=C(NC(=O)C(=C)NC(=O)c1csc(C2=N[C@@H]3c4csc(n4)[C@H]4NC(=O)c5csc(n5)[C@H]([C@](C)(O)[C@@H](C)O)NC(=O)[C@H]5CSC(=N5)/C(=C/C)NC(=O)[C@H]([C@@H](C)O)NC(=O)c5csc(n5)[C@]3(CC2)NC(=O)[C@H](C)NC(=O)C(=C)NC(=O)[C@H](C)NC(=O)[C@H]([C@@H](C)CC)N[C@@H]2C=Cc3c([C@H](C)O)cc(nc3[C@H]2O)C(=O)O[C@@H]4C)n1)C(N)=O` [TS, thiostrepton] the growth (E. coli BW25113) was “unaffected”, the “concentration of TS required to inhibit growth in serum” value (P. aeruginosa PAO1) was “markedly decreased” and the “TS concentration inhibiting growth” value [1] was under 40 nM. For the same compound, the “resistance to TS compared to vector-only control” value ([2]; PA14 expressing tsr in trans (pUCP20-tsr)) was “significantly increased” and the “TS concentration up to which the strain was resistant” value ([2]; PAO1 expressing tsr in trans (pUCP20-tsr)) was 10 µM.
